Experimental data as given in patent US20130164228A1, “COMPOSITIONS COMPRISING GALLATES AND GALLAMIDES” (Colgate-Palmolive Company, priority 2011, published 2013).
Values belong to the molecule of their own block, whether it stands above or below them.

How the values were obtained:
[1] = test system: LL-37 release from human gingival epithelial cells; experiment: Induction of anti-microbial peptides: LL-37 ELISA of supernatants; assay type: cell-based; conditions: for LL-37 (ng/ml) at 0.05% after 16 hrs: 0.05% test compound; for LL-37 (ng/ml) at 0.1% after 4 hrs: 0.1% test compound
[2] = Vitro-Skin assay of potential uptake in skin; assay type: in vitro ADME
Description: Using a commercial Vitro-Skin® assay to measure potential uptake in skin, we see uptake from all the formulations, but have better uptake in the Dical formulation than in the silica/SLS formulation (units in micrograms/cm^2): • 0.2% THDG/CDC: 4.9 • 0.2% THDG/HSLS: 0.6 • 0.2% CHDG/CDC: 4.4 • 0.2% CHDG/[…] • 0.3% Triclosan (positive control): 7.7

[3] = test system: β-defensin release from human gingival epithelial cells; experiment: Induction of anti-microbial peptides: β-defensin ELISA of supernatants; assay type: cell-based; conditions: 0.1% test compound
[4] = Stability/discoloration of THDG and CHDG (neat, solution, saliva, dentifrice); assay type: physicochemical; conditions: for stability in saliva (discoloration): 24 h at 37° C., subject specific, saliva pH 6.5-8; for discoloration in dentifrice, CDC base: in 2 weeks; for Stability of neat materials: neat powders; for discoloration of solutions in DMSO/water: pH 6.1-6.5, after 4M at RT; for discoloration in dentifrice, silica base: in 1 week
[5] = test system: Actinomyces viscosus (ATCC # 43146); experiment: Antibacterial growth inhibition (GI) assay; assay type: cell-based; conditions: 100 ppm, OD610 at 2, 4, 6, 24 h
Protocol: An overnight culture of Actinomyces viscosus (ATCC # 43146) is diluted to an OD610˜0.2 in sterile trypticase soy broth (TSB) Nine mls of diluted Actinomyces viscosus is added to triplicate 15 mls sterile culture tubes for each sample or control tested. One ml of each analog was added to the corresponding culture tube and briefly vortexed. Cultures are incubated at 37° C. in a shaking water bath. Supernatants are removed at 2, 4, 6, and 24 h and the OD610 read. Results from triplicate samples were averaged and growth is plotted as a function of time.

LL-37 production = conditions: natural products with only one 1,2,3-trihydroxybenzene ring; cited from earlier work

uptake in Vitro-Skin from CDC formulation ([2]; 0.2 %): 4.9 micrograms/cm^2 | uptake in Vitro-Skin from HSLS formulation ([2]; 0.2 %): 0.6 micrograms/cm^2 | discoloration in dentifrice, CDC base ([4]; CDC base): slight discoloration | Stability of neat materials [4]: short term shelf stability acceptable | discoloration of solutions in DMSO/water [4]: no discoloration | discoloration in dentifrice, silica base ([4]; silica base): moderate discoloration
Molecule: O=C(O[C@@H]1CCCC[C@H]1OC(=O)c1cc(O)c(O)c(O)c1)c1cc(O)c(O)c(O)c1 (relative stereo) [THDG, trans-1,2 cyclohexanediol digallate]
LL-37 (ng/ml) at 0.05% after 16 hrs [1]: 5900 ng/mL | LL-37 (ng/ml) at 0.1% after 4 hrs [1]: 4100 ng/mL | β-defensin (ng/ml) at 0.1% after 4 hrs [3]: 280 ng/mL | stability in saliva (discoloration) [4]: no discoloration to deep green discoloration

Molecule: O=C(N[C@@H]1CCCC[C@H]1NC(=O)c1cc(O)c(O)c(O)c1)c1cc(O)c(O)c(O)c1 (relative stereo) [THDGA, trans-1,2-cyclohexane digallamide]
LL-37 (ng/ml) at 0.05% after 16 hrs [1]: 130 ng/mL | LL-37 (ng/ml) at 0.1% after 4 hrs [1]: 100 ng/mL | β-defensin (ng/ml) at 0.1% after 4 hrs [3]: 1.5 ng/mL

Molecule: CCCCOC(=O)c1cc(O)c(O)c(O)c1 [BG]
LL-37 (ng/ml) at 0.05% after 16 hrs [1]: 50 ng/mL | LL-37 (ng/ml) at 0.1% after 4 hrs [1]: 100 ng/mL | β-defensin (ng/ml) at 0.1% after 4 hrs [3]: 0 ng/mL

discoloration in dentifrice, CDC base ([4]; CDC base): slight discoloration | Stability of neat materials [4]: short term shelf stability acceptable | discoloration of solutions in DMSO/water [4]: no discoloration | discoloration in dentifrice, silica base ([4]; silica base): moderate discoloration
Molecule: O=C(O[C@H]1CCCC[C@H]1OC(=O)c1cc(O)c(O)c(O)c1)c1cc(O)c(O)c(O)c1 [CHDG, cis-1,2-cyclohexanediol digallate]
LL-37 (ng/ml) at 0.05% after 16 hrs [1]: 3700 ng/mL | LL-37 (ng/ml) at 0.1% after 4 hrs [1]: 5200 ng/mL | β-defensin (ng/ml) at 0.1% after 4 hrs [3]: 150 ng/mL | stability in saliva (discoloration) [4]: no discoloration to deep green discoloration

Molecule: O=C(N[C@H]1CCCC[C@H]1NC(=O)c1cc(O)c(O)c(O)c1)c1cc(O)c(O)c(O)c1 [CHDGA, cis-1,2-cyclohexane digallamide]
LL-37 (ng/ml) at 0.05% after 16 hrs [1]: 120 ng/mL | LL-37 (ng/ml) at 0.1% after 4 hrs [1]: 100 ng/mL | β-defensin (ng/ml) at 0.1% after 4 hrs [3]: 0.7 ng/mL

Molecule: O=C(O[C@H]1CCC[C@H]1OC(=O)c1cc(O)c(O)c(O)c1)c1cc(O)c(O)c(O)c1 [CPDG, cis-1,2-cyclopentanediol digallate]
LL-37 (ng/ml) at 0.05% after 16 hrs [1]: 160 ng/mL | LL-37 (ng/ml) at 0.1% after 4 hrs [1]: 120 ng/mL | β-defensin (ng/ml) at 0.1% after 4 hrs [3]: 0.5 ng/mL

time to discoloration in dentifrice, CDC base ([4]; CDC base): 2 days | time to discoloration of solution in DMSO/water ([4]; same conditions: DMSO/water, RT): < 1 week | time to discoloration in dentifrice, silica base ([4]; silica base): 2 days
Molecule: O=C(O[C@@H]1Cc2c(O)cc(O)cc2O[C@@H]1c1cc(O)c(O)c(O)c1)c1cc(O)c(O)c(O)c1 [EGCG, epigallocatechin gallate, reference compound]
antibacterial activity in bacterial culture [5]: modest antibacterial activity | LL-37 (ng/ml) at 0.05% after 16 hrs ([1]; listed as EGCG (source Kenko)): 15 ng/mL | LL-37 (ng/ml) at 0.05% after 16 hrs ([1]; listed as EGCG (source TeaVigo)): 20 ng/mL | LL-37 (ng/ml) at 0.1% after 4 hrs [1]: 160 ng/mL | β-defensin (ng/ml) at 0.1% after 4 hrs [3]: 4.3 ng/mL

uptake in Vitro-Skin, positive control ([2]; 0.3% Triclosan): 7.7 micrograms/cm^2
Molecule: Oc1cc(Cl)ccc1Oc1ccc(Cl)cc1Cl [Triclosan, triclosan, reference compound]

Molecule: Oc1cc(O)c2c(c1)O[C@H](c1cc(O)c(O)c(O)c1)[C@H](O)C2 [epigallocatechin]
potency in LL-37 production compared with EGCG (LL-37 production): significantly less potent

Molecule: catechin gallate
potency in LL-37 production compared with EGCG (LL-37 production): significantly less potent
